Data set [1] concerns Puccinia recondita f. Sp. tritici. In words: Puccinia recondita f. sp. tritici / wheat / leaf disc preventative (brown rust). Particulars: foliar, 200 ppm in the applied formulation, wheat leaf segments cv. Kanzler, inoculated 1 day after application, assessed 7 to 9 days after application, compared to untreated, read-out: disease control. The data set is classed as in vivo. The procedure: Leaf disks or leaf segments of various plant species are cut from plants grown in a greenhouse. The cut leaf disks or segments are placed in multiwell plates (24-well format) onto water agar. The leaf disks are sprayed with a test solution before (preventative) or after (curative) inoculation. Compounds to be tested are prepared as DMSO solutions (max. 10 mg/mL) which are diluted to the appropriate concentration with 0.025% Tween20 just before spraying. The inoculated leaf disks or segments are incubated under defined conditions (temperature, relative humidity, light, etc.) according to the respective test system. A single evaluation of disease level is carried out 3 to 14 days after inoculation, depending on the pathosystem. Percent disease control relative to the untreated check leaf disks or segments is then calculated. Example 1: Fungicidal Activity Against Puccinia recondita f. Sp. tritici/Wheat/Leaf Disc Preventative (Brown Rust) Wheat leaf segments cv. Kanzler were placed on agar in multiwell plates (24-well format) and sprayed with the formulated test compound diluted in water. The leaf disks were inoculated with a spore suspension of the fungus 1 day after application. The inoculated leaf segments were incubated at 19° C. and 75% relative humidity (rh) under a light regime of 12 hours light/12 hours darkness in a climate cabinet and the activity of a compound was assessed as percent disease control compared to untreated when an appropriate level of disease damage appears in untreated check leaf segments (7 to 9 days after application). The following compounds at 200 ppm in the applied formulation give at least 80% disease control in this test when compared to untreated control leaf disks under the same conditions, which show extensive disease development.

The test system is the same in data set [2]. In words: Puccinia recondita f. sp. tritici / wheat / leaf disc curative (brown rust). The data set is classed as in vivo. Particulars: foliar, 200 ppm in the applied formulation, wheat leaf segments cv. Kanzler, applied 1 day after inoculation, assessed 6 to 8 days after application, compared to untreated, read-out: disease control. On the procedure: Leaf disks or leaf segments of various plant species are cut from plants grown in a greenhouse. The cut leaf disks or segments are placed in multiwell plates (24-well format) onto water agar. The leaf disks are sprayed with a test solution before (preventative) or after (curative) inoculation. Compounds to be tested are prepared as DMSO solutions (max. 10 mg/mL) which are diluted to the appropriate concentration with 0.025% Tween20 just before spraying. The inoculated leaf disks or segments are incubated under defined conditions (temperature, relative humidity, light, etc.) according to the respective test system. A single evaluation of disease level is carried out 3 to 14 days after inoculation, depending on the pathosystem. Percent disease control relative to the untreated check leaf disks or segments is then calculated. Example 2: Fungicidal Activity Against Puccinia recondita f. sp. tritici/Wheat/Leaf Disc Curative (Brown Rust) Wheat leaf segments cv. Kanzler are placed on agar in multiwell plates (24-well format). The leaf segments are then inoculated with a spore suspension of the fungus. Plates were stored in darkness at 19° C. and 75% relative humidity. The formulated test compound diluted in water was applied 1 day after inoculation. The leaf segments were incubated at 19° C. and 75% relative humidity under a light regime of 12 hours light/12 hours darkness in a climate cabinet and the activity of a compound was assessed as percent disease control compared to untreated when an appropriate level of disease damage appears in untreated check leaf segments (6 to 8 days after application). The following compounds at 200 ppm in the applied formulation give at least 80% disease control in this test when compared to untreated control leaf disks under the same conditions, which show extensive disease development.

Another data set relates to Phakopsora pachurhizi. In words: Phakopsora pachurhizi / soybean / leaf disc preventative (Asian soybean rust). It counts as in vivo. Particulars: Glycine max, foliar, 200 ppm in the applied formulation, soybean leaf disks, inoculated one day after application, assessed 12 to 14 days after application, compared to untreated, read-out: disease control. On the procedure:
Leaf disks or leaf segments of various plant species are cut from plants grown in a greenhouse. The cut leaf disks or segments are placed in multiwell plates (24-well format) onto water agar. The leaf disks are sprayed with a test solution before (preventative) or after (curative) inoculation. Compounds to be tested are prepared as DMSO solutions (max. 10 mg/mL) which are diluted to the appropriate concentration with 0.025% Tween20 just before spraying. The inoculated leaf disks or segments are incubated under defined conditions (temperature, relative humidity, light, etc.) according to the respective test system. A single evaluation of disease level is carried out 3 to 14 days after inoculation, depending on the pathosystem. Percent disease control relative to the untreated check leaf disks or segments is then calculated.
Example 3: Fungicidal Activity Against Phakopsora pachurhizi/Soybean/Leaf Disc Preventative (Asian Soybean Rust)
Soybean leaf disks are placed on water agar in multiwell plates (24-well format) and sprayed with the formulated test compound diluted in water. One day after application leaf discs are inoculated by spraying a spore suspension on the lower leaf surface. After an incubation period in a climate cabinet of 24-36 hours in darkness at 20° C. and 75% rh leaf disc are kept at 20° C. with 12 hours light/day and 75% rh. The activity of a compound is assessed as percent disease control compared to untreated when an appropriate level of disease damage appears in untreated check leaf disks (12 to 14 days after application).
The following compounds at 200 ppm in the applied formulation give at least 80% disease control in this test when compared to untreated control leaf disks under the same conditions, which show extensive disease development.

The test system of the next data set is Glomerella lagenarium. In words: Glomerella lagenarium liquid culture / cucumber / preventative (anthracnose). It counts as cell-based. As to conditions: Colletotrichum orbiculare; 20 ppm in the applied formulation; liquid culture in PDB, 24° C.; measured 3 to 4 days after application; compared to untreated; read-out: disease control (inhibition of growth, photometric). The procedure:
Mycelia fragments or conidia suspensions of a fungus prepared either freshly from liquid cultures of the fungus or from cryogenic storage, are directly mixed into nutrient broth. DMSO solutions of the test compound (max. 10 mg/mL) are diluted with 0.025% Tween20 by a factor of 50 and 10 μL of this solution is pipetted into a microtiter plate (96-well format). The nutrient broth containing the fungal spores/mycelia fragments is then added to give an end concentration of the tested compound. The test plates are incubated in the dark at 24° C. and 96% relative humidity. The inhibition of fungal growth is determined photometrically after 2 to 7 days, depending on the pathosystem, and percent antifungal activity relative to the untreated check is calculated. Example 4: Fungicidal activity against Glomerella lagenarium liquid culture/cucumber/Preventative (Anthracnose) Conidia of the fungus from cryogenic storage are directly mixed into nutrient broth (PDB—potato dextrose broth). After placing a (DMSO) solution of test compound into a microtiter plate (96-well format), the nutrient broth containing the fungal spores is added. The test plates are incubated at 24° C. and the inhibition of growth is measured photometrically 3 to 4 days after application. The following compounds at 20 ppm in the applied formulation give at least 80% disease control in this test when compared to untreated control under the same conditions, which show extensive disease development.

SMILES strings stand for the structures.

As a reminder, the inhibition is the percentage by which the read-out fell short of the control. Usually melting point stands for the temperature, or range, at which the solid turns liquid.

With `Cc1cnc(Cc2ccc(-c3noc(C(F)(F)F)n3)s2)cn1` [Compound 1.1, 3-[5-[(5-methylpyrazin-2-yl)methyl]-2-thienyl]-5-(trifluoromethyl)-1,2,4-oxadiazole], the pest or weed control at 200 ppm (in data set [1]; in data set [2]; in the data set with Phakopsora pachurhizi) was not below 80% in each case. Besides, the inhibition at 20 ppm with Glomerella lagenarium is not below 80%.
With `Cc1cnc(C(=O)c2ccc(-c3noc(C(F)(F)F)n3)s2)cn1` [Compound 1.2, (5-methylpyrazin-2-yl)-[5-[5-(trifluoromethyl)-1,2,4-oxadiazol-3-yl]-2-thienyl]methanone], the melting point lay within 105 to 110 °C. For the same compound, the pest or weed control at 200 ppm in data set [1] was not below 80%. Also, in data set [2], the pest or weed control at 200 ppm is not below 80%. In the data set with Phakopsora pachurhizi, the pest or weed control at 200 ppm was not below 80%. In the data set on Glomerella lagenarium, the inhibition at 20 ppm was not below 80%.
In turn, `Cc1cnc(C(O)c2ccc(-c3noc(C(F)(F)F)n3)s2)cn1` (stereo not drawn) [Compound 1.3, (5-methylpyrazin-2-yl)-[5-[5-(trifluoromethyl)-1,2,4-oxadiazol-3-yl]-2-thienyl]methanol] showed a melting point of 95 to 100 °C. The pest or weed control at 200 ppm in data set [1] is not below 80%. Besides, the pest or weed control at 200 ppm in data set [2] is not below 80%. Also, in the data set with Phakopsora pachurhizi, the pest or weed control at 200 ppm is not below 80%. The inhibition at 20 ppm in the data set on Glomerella lagenarium was not below 80%.
On to `FC(F)(F)c1nc(-c2ccc(Cc3cnccn3)s2)no1` [Compound 1.4, 3-[5-(pyrazin-2-ylmethyl)-2-thienyl]-5-(trifluoromethyl)-1,2,4-oxadiazole], for which the pest or weed control at 200 ppm (in data set [1]; in data set [2]; in the data set with Phakopsora pachurhizi) was not below 80% each time. Moreover, in the data set with Glomerella lagenarium, the inhibition at 20 ppm was not below 80%.
In turn, `O=C(c1cnccn1)c1ccc(-c2noc(C(F)(F)F)n2)s1` [Compound 1.5, pyrazin-2-yl-[5-[5-(trifluoromethyl)-1,2,4-oxadiazol-3-yl]-2-thienyl]methanone] showed a melting point of 95 to 105 °C. For the same compound, the pest or weed control at 200 ppm in data set [1] was not below 80%. In data set [2], the pest or weed control at 200 ppm is not below 80%. Moreover, the pest or weed control at 200 ppm in the data set on Phakopsora pachurhizi is not below 80%. The inhibition at 20 ppm in the data set with Glomerella lagenarium is not below 80%.
For the compound `OC(c1cnccn1)c1ccc(-c2noc(C(F)(F)F)n2)s1` (stereo not drawn) [Compound 1.6, pyrazin-2-yl-[5-[5-(trifluoromethyl)-1,2,4-oxadiazol-3-yl]-2-thienyl]methanol], the pest or weed control at 200 ppm in data set [1] and in data set [2] was not below 80% in each case. The inhibition at 20 ppm with Glomerella lagenarium is not below 80%.
In the case of `O=C(c1ncccn1)c1ccc(-c2noc(C(F)(F)F)n2)s1` [Compound 1.7, pyrimidin-2-yl-[5-[5-(trifluoromethyl)-1,2,4-oxadiazol-3-yl]-2-thienyl]methanone], the melting point fell in the range of 110 to 116 °C. Also, the pest or weed control at 200 ppm in data set [1] was not below 80%. Also, in data set [2], the pest or weed control at 200 ppm is not below 80%. Also, in the data set on Phakopsora pachurhizi, the pest or weed control at 200 ppm was not below 80%. The inhibition at 20 ppm with Glomerella lagenarium is not below 80%.
`Cc1ccc(C(=O)c2ccc(-c3noc(C(F)(F)F)n3)s2)nc1C` [Compound 1.8, (5,6-dimethyl-2-pyridyl)-[5-[5-(trifluoromethyl)-1,2,4-oxadiazol-3-yl]-2-thienyl]methanone] returned a melting point of 98 to 112 °C. The pest or weed control at 200 ppm in data set [1] is not below 80%. Further, in data set [2], the pest or weed control at 200 ppm is not below 80%. In addition, in the data set with Phakopsora pachurhizi, the pest or weed control at 200 ppm is not below 80%.
For the compound `O=C(c1cnc(Cl)cn1)c1ccc(-c2noc(C(F)(F)F)n2)s1` [Compound 1.9, (5-chloropyrazin-2-yl)-[5-[5-(trifluoromethyl)-1,2,4-oxadiazol-3-yl]-2-thienyl]methanone], the melting point fell in the range of 80 to 85 °C. Moreover, the pest or weed control at 200 ppm in data set [1] is not below 80%. In addition, in data set [2], the pest or weed control at 200 ppm was not below 80%. In the data set on Glomerella lagenarium, the inhibition at 20 ppm is not below 80%.
Regarding `CCC(O)(c1ccc(C)cn1)c1ccc(-c2noc(C(F)(F)F)n2)s1` (stereo not drawn) [Compound 1.10, 1-(5-methyl-2-pyridyl)-1-[5-[5-(trifluoromethyl)-1,2,4-oxadiazol-3-yl]-2-thienyl]propan-1-ol], the pest or weed control at 200 ppm (in data set [1]; in data set [2]; in the data set on Phakopsora pachurhizi) was not below 80% each time. Besides, the inhibition at 20 ppm in the data set on Glomerella lagenarium was not below 80%.
In turn, `Cc1ccc(Cc2ccc(-c3noc(C(F)(F)F)n3)s2)nc1` [Compound 1.11, 3-[5-[(5-methyl-2-pyridyl)methyl]-2-thienyl]-5-(trifluoromethyl)-1,2,4-oxadiazole] returned a melting point of 40 to 45 °C. The pest or weed control at 200 ppm in data set [1] was not below 80%. Besides, the pest or weed control at 200 ppm in data set [2] was not below 80%. For the same compound, the pest or weed control at 200 ppm in the data set with Phakopsora pachurhizi is not below 80%. Besides, the inhibition at 20 ppm in the data set with Glomerella lagenarium is not below 80%.
`Cc1ccc(C(=O)c2ccc(-c3noc(C(F)(F)F)n3)s2)nc1` [Compound 1.12, (5-methyl-2-pyridyl)-[5-[5-(trifluoromethyl)-1,2,4-oxadiazol-3-yl]-2-thienyl]methanone] returned a melting point of 111 to 114 °C. In addition, in data set [1], the pest or weed control at 200 ppm was not below 80%. In addition, in data set [2], the pest or weed control at 200 ppm was not below 80%. For the same compound, in the data set with Phakopsora pachurhizi, the pest or weed control at 200 ppm is not below 80%. In the data set on Glomerella lagenarium, the inhibition at 20 ppm is not below 80%.
Consider `Cc1ccc(C(O)c2ccc(-c3noc(C(F)(F)F)n3)s2)nc1` (stereo not drawn) [Compound 1.13, (5-methyl-2-pyridyl)-[5-[5-(trifluoromethyl)-1,2,4-oxadiazol-3-yl]-2-thienyl]methanol], for which the pest or weed control at 200 ppm (in data set [1]; in data set [2]; in the data set on Phakopsora pachurhizi) was not below 80% each time. Besides, the inhibition at 20 ppm in the data set with Glomerella lagenarium is not below 80%.

Values taken from patent publication US20210284633A1, “3-(2-THIENYL)-5-(TRIFLUOROMETHYL)-1,2,4-OXADIAZOLE DERIVATIVES AS AGROCHEMICAL FUNGICIDES” (SYNGENTA CROP PROTECTION AG, priority 2018, published 2021).
